Tests used:
[1] = test system: extensor digitorum longus muscle fibers; test: Immunohistochemistry of muscle fiber type (MHC2a/MHC2b) in extensor digitorum longus muscle; assay type: in vivo, mouse
From the text: To examine distribution of 2a type muscle fiber and 2b type muscle fiber, extensor digitorum longus muscles of mice administered with farnesol for 5 weeks are subjected to immunohistochemistry. 2a type muscle fiber is an oxidative muscle fiber type, and there are two types: aerobic, that is, oxygen-dependent energy source and anaerobic, that is, oxygen-independent energy source. 2b type muscle fiber is a glycolytic muscle fiber type, and includes only anaerobic energy source. Frozen sections stored in a deep freezer of -80° C. are washed with 1×PBS twice, and fixed with 4% paraformaldehyde at room temperature for 15 minutes, and then washed with 1×PBS twice. The tissue and a permeabilization buffer (0.2% Triton-X/PBS) are reacted at room temperature for 30 minutes, and washed with 1×PBS twice. The tissue and Proteinase K are reacted at 37° C. for 10 minutes for antigen retrieval, and washed with 1×PBS twice, and blocked in a blocking buffer (0.1% gelatin, 5% goat serum, 0.5% BSA, and 0.1% Triton-X) for 1 hr. As a primary antibody, a rabbit antibody specifically binding to MHC2a or MHC2b is diluted with the blocking buffer at a ratio of 1:500 and reacted at 4° C. for 12 hrs, followed by washing with 1×PBS twice. A secondary antibody, anti-rabbit antibody is reacted, followed by washing 1×PBS twice. After sealing, a fluorescence microscope (Nikon, body: Ti-u, camera: DS-RI1, program: NIS-elements BR 3.1) was used for analysis. Farnesol is administered to mice in the same manner as in Section 3 of Example 2, except that 22-month-old mice are used instead of 5-month-old mice and administration is performed for 4 months instead of 5 weeks, and changes in the skeletal muscle type are examined.

[2] = Energy expenditure of old mice (Oxylet calorimetry); assay type: in vivo, mouse; settings: farnesol diet 4 months
Description: 22-month-old female mice (weighing 30 g) are fed with a control diet and a farnesol diet for 4 months. That is, 22-month-old mice are fed for 4 months, and then 26-month-old mice are analyzed. […] The same mouse is used as a control group, except that it is fed with a diet containing no farnesol. Muscle strength, energy expenditure, glucose tolerance, and fat accumulation of each mouse are evaluated. […] To measure energy expenditures of old mice administered with farnesol, mice are bred in a measurement apparatus, Oxylet system (calorimetry apparatus, Panlab Harvard apparatus) for 2 days. A METABOLISM software connected with metabolic measurement modules is used for analysis of energy expenditure.

human PARIS (WT, C631S) [3] = target: T1, human PARIS (WT, C631S) (Homo sapiens, UniProt Q6NUN9); test: Immunoprecipitation of PARIS WT and PARIS C631S mutant in C2C12 myoblasts; assay type: cell-based; settings: C2C12 with FLAG-PARIS WT, 0.1 uM farnesol, 24 hours
T1 construct: Human full length PARIS cDNA (IMAGE: 30347892); expressed in transfected cells; host or cells: C2C12 myoblasts, pCMV-Tag2A (Stratagene)
T1 sequence (Q6NUN9 whole entry C631S): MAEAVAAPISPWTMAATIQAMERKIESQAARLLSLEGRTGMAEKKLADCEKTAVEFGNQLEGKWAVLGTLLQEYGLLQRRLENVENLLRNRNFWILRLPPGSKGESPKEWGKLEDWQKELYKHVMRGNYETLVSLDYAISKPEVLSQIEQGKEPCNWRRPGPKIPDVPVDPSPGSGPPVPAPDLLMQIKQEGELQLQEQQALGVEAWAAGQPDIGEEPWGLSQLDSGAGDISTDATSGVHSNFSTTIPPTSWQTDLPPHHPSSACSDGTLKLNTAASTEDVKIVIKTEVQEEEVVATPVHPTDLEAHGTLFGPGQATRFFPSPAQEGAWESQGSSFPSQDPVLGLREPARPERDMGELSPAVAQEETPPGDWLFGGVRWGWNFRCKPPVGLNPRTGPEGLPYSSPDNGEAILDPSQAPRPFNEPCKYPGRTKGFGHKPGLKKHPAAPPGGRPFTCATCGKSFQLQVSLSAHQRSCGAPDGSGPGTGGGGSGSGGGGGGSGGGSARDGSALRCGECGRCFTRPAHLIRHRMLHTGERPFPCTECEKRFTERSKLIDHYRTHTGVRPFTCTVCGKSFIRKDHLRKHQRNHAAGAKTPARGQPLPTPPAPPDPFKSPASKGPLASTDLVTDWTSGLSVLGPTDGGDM
Description: (§1) To examine whether cysteine residues of CGLS sequence (631-634) of an amino acid sequence (SEQ ID NO: 11) of human PARIS are farnesylation sites, a FLAG-PARIS wild-type (WT) gene or a FLAG-PARIS C631S mutant (hereinafter, referred to as “MT”) gene is introduced into C2C12 myoblasts in the presence of DMSO or 0.1 uM farnesol, and the gene is expressed in C2C12 myoblasts by culturing them in DMEM containing 10% FBS for 24 hours. Immunoprecipitation and promoter activity analysis of a cell lysate are performed. The site of amino acid sequence (SEQ ID NO: 10) of mouse PARIS corresponding to CGLS sequence (631-634) of the amino acid sequence (SEQ ID NO: 11) of human PARIS is residues at positions 638-641. This CGLS sequence is conserved in mammals as well as humans and mice, and thus C of CGLS which is located at the C-terminus is a farnesylation site regardless of the length of the sequence.
(§2) Human full length PARIS cDNA (IMAGE: 30347892; Open Biosystems) (SEQ ID NO: 9) is cloned into BamH1 and EcoR1 restriction sites of a mammalian gene expression vector, pCMV-Tag2A (Stratagene). The pCMV-Tag2A vector is a plasmid-derived mammalian expression vector for tagging proteins with an N-terminal FLAG epitope. A QuikChange site-directed mutagenesis kit (Stratagene) is used to prepare pCMV-PARIS C631S, in which a PARIS C631S gene mutant obtained by substituting serine for the cysteine residue at position 631 of human PARIS is cloned into BamHI and EcoRI restriction sites of pCMV-Tag2A (Stratagene). After preparation of the mutant gene, the gene is introduced into pCMV to prepare an overexpression vector. To prepare the PARIS C631S gene, a pair of primers (SEQ ID NOS: 12 and 13) is used. Thereafter, a nucleotide sequence of the PARIS C631S gene thus prepared is confirmed by automated DNA sequencing.
(§3) In the case of PARIS C631S mutant, no farnesylation occurs. […] In FIG. 5C, − represents C2C12 myoblasts introduced with no PARIS gene, and WT and MT represent C2C12 myoblasts introduced with the wild-type PARIS gene and the mutant PARIS gene, that is, PARIS C631S gene, respectively. […]

human PARIS (WT, C631S) [4] = target: T2, human PARIS (WT, C631S) (Homo sapiens, UniProt Q6NUN9, C631S); test: as above; assay type: cell-based; settings: C2C12 with FLAG-PARIS C631S, 0.1 uM farnesol, 24 hours
T2 construct: Human full length PARIS cDNA (IMAGE: 30347892); expressed in transfected cells; host or cells: C2C12 myoblasts, pCMV-Tag2A (Stratagene)
T2 sequence (Q6NUN9 whole entry C631S): as above
Description: as §1, §2, §3

[5] = 5-month-old mice, farnesol orally 5 weeks

Compound: CC(C)=CCC/C(C)=C/CC/C(C)=C/CO [farnesol, (2E,6E)-3,7,11-trimethyldodeca-2,6,10-trien-1-ol]
- diameter of oxidative 2a type muscle fiber in EDL [1, 5]: increased
- number of glycolytic 2b type muscle fiber in EDL [1, 5]: decreased
- number of oxidative 2a type muscle fiber in EDL [1, 5]: increased
- number of oxidative 2a type muscle fiber in EDL compared to control ([1]; 22-month-old mice, farnesol 4 months): about 1.4 times
- energy expenditure [2]: significantly increased
- PGC-1α level, PARIS WT (human PARIS (WT, C631S) [3]): PGC-1α increase
- farnesylation of PARIS WT (human PARIS (WT, C631S) [3]): increased
- PGC-1α level, PARIS C631S mutant (human PARIS (WT, C631S) [4]): does not affect

— patent US10780061B2, “Composition comprising farnesol and use thereof” (Daegu Gyongbuk Institute of Science and Technology, priority 2014, dated 2020)
